Experiments:
Experiment in all cases: Bliss interaction score (quartile over a dose matrix) (fitness difference); higher = more antagonism (negative = synergy)
B. subtilis 168 = test system: B. subtilis 168
How it was run: (§1)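 Growth in each well was taken as OD595 at entry into stationary phase. Dividing by the plate's robust no-drug mean and capping at 1 gave fitness, and single-drug fitness was inferred from the combination data. The Bliss score, observed minus product-expected fitness, is summarised by quartiles over technical, biological and donor/recipient replicates.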

S. aureus DSM 20231 = test system: S. aureus DSM 20231
How it was run: as §1

S. aureus Newman = test system: S. aureus Newman
How it was run: as §1

S. pneumoniae D39V = test system: S. pneumoniae D39V
How it was run: as §1
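Note: first quartile when negative (synergy) and third quartile when positive (antagonism).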

Row | SMILES | Bliss interaction score (B. subtilis 168) | Bliss interaction score (S. aureus DSM 20231) | Bliss interaction score (S. aureus Newman) | Bliss interaction score (S. pneumoniae D39V) | Bliss interaction score (S. aureus DSM 20231; main component drawn)
1 | CC[C@H]1OC(=O)[C@H](C)[C@@H](O[C@H]2C[C@@](C)(OC)[C@@H](O)[C@H](C)O2)[C@H](C)[C@@H](O[C@@H]2O[C@H](C)C[C@H](N(C)C)[C@H]2O)[C@](C)(O)C[C@@H](C)CN(C)[C@H](C)[C@@H](O)[C@]1(C)O [Azithromycin] + C1=CC(=CC(=C1)Cl)NN=C(C#N)C#N [CCCP] | -0.104 | -0.0316 | -0.0482 | -0.0621 | 
2 | CC[C@H]1OC(=O)[C@H](C)[C@@H](O[C@H]2C[C@@](C)(OC)[C@@H](O)[C@H](C)O2)[C@H](C)[C@@H](O[C@@H]2O[C@H](C)C[C@H](N(C)C)[C@H]2O)[C@](C)(O)C[C@@H](C)CN(C)[C@H](C)[C@@H](O)[C@]1(C)O [Azithromycin] + CC1(C)S[C@@H]2[C@H](NC(=O)Cc3ccccc3)C(=O)N2[C@H]1C(=O)O [PenicillinG] | 0.0629 | -0.0514 | -0.087 | 0.0489 | 
3 | CC[C@H]1OC(=O)[C@H](C)[C@@H](O[C@H]2C[C@@](C)(OC)[C@@H](O)[C@H](C)O2)[C@H](C)[C@@H](O[C@@H]2O[C@H](C)C[C@H](N(C)C)[C@H]2O)[C@](C)(O)C[C@@H](C)CN(C)[C@H](C)[C@@H](O)[C@]1(C)O [Azithromycin] + CC(=O)O[C@H]1C[C@@]2(C)[C@@H](C[C@@H](O)[C@H]3[C@@]4(C)CC[C@@H](O)[C@@H](C)[C@@H]4CC[C@@]32C)/C1=C(\CCC=C(C)C)C(=O)O [Fusidic acid] | -0.119 | -0.0342 | 0.0362 | -0.0761 | 
4 | CC[C@H]1OC(=O)[C@H](C)[C@@H](O[C@H]2C[C@@](C)(OC)[C@@H](O)[C@H](C)O2)[C@H](C)[C@@H](O[C@@H]2O[C@H](C)C[C@H](N(C)C)[C@H]2O)[C@](C)(O)C[C@@H](C)CN(C)[C@H](C)[C@@H](O)[C@]1(C)O [Azithromycin] + CC[C@H]1OC(=O)[C@H](C)C(=O)[C@H](C)[C@@H](O[C@@H]2O[C@H](C)C[C@H](N(C)C)[C@H]2O)[C@](C)(OC)C[C@@H](C)C(=O)[C@H](C)[C@H]2N(CCCCn3cnc(-c4cccnc4)c3)C(=O)O[C@]12C [Telithromycin] | 0.0342 | -0.0311 | -0.0389 | 0.0272 | 
5 | CC[C@H]1OC(=O)[C@H](C)[C@@H](O[C@H]2C[C@@](C)(OC)[C@@H](O)[C@H](C)O2)[C@H](C)[C@@H](O[C@@H]2O[C@H](C)C[C@H](N(C)C)[C@H]2O)[C@](C)(O)C[C@@H](C)CN(C)[C@H](C)[C@@H](O)[C@]1(C)O [Azithromycin] + CC[C@H]1OC(=O)[C@H](C)[C@@H](O[C@H]2C[C@@](C)(OC)[C@@H](O)[C@H](C)O2)[C@H](C)[C@@H](O[C@@H]2O[C@H](C)C[C@H](N(C)C)[C@H]2O)[C@](C)(O)C[C@@H](C)C(=O)[C@H](C)[C@@H](O)[C@]1(C)O [Erythromycin] | -0.0754 | -0.056 | -0.0668 | 0.0539 | 
6 | CC[C@H]1OC(=O)[C@H](C)[C@@H](O[C@H]2C[C@@](C)(OC)[C@@H](O)[C@H](C)O2)[C@H](C)[C@@H](O[C@@H]2O[C@H](C)C[C@H](N(C)C)[C@H]2O)[C@](C)(O)C[C@@H](C)CN(C)[C@H](C)[C@@H](O)[C@]1(C)O [Azithromycin] + CC[C@H]1OC(=O)[C@H](C)[C@@H](O[C@H]2C[C@@](C)(OC)[C@@H](O)[C@H](C)O2)[C@H](C)[C@@H](O[C@@H]2O[C@H](C)C[C@H](N(C)C)[C@H]2O)[C@](C)(OC)C[C@@H](C)C(=O)[C@H](C)[C@@H](O)[C@]1(C)O [Clarithromycin] | -0.0578 | -0.107 | -0.0536 | -0.0473 | 
7 | CC[C@H]1OC(=O)[C@H](C)[C@@H](O[C@H]2C[C@@](C)(OC)[C@@H](O)[C@H](C)O2)[C@H](C)[C@@H](O[C@@H]2O[C@H](C)C[C@H](N(C)C)[C@H]2O)[C@](C)(O)C[C@@H](C)CN(C)[C@H](C)[C@@H](O)[C@]1(C)O [Azithromycin] + CN(C)[C@@H]1C(O)=C(C(N)=O)C(=O)[C@@]2(O)C(O)=C3C(=O)c4c(O)ccc(Cl)c4[C@@](C)(O)[C@H]3C[C@@H]12 [Clortetracycline] | -0.344 | -0.243 | -0.192 | -0.084 | 
8 | CC[C@H]1OC(=O)[C@H](C)[C@@H](O[C@H]2C[C@@](C)(OC)[C@@H](O)[C@H](C)O2)[C@H](C)[C@@H](O[C@@H]2O[C@H](C)C[C@H](N(C)C)[C@H]2O)[C@](C)(O)C[C@@H](C)CN(C)[C@H](C)[C@@H](O)[C@]1(C)O [Azithromycin] + CN[C@H](CC(C)C)C(=O)N[C@H]1C(=O)N[C@@H](CC(N)=O)C(=O)N[C@H]2C(=O)N[C@H]3C(=O)N[C@H](C(=O)N[C@H](C(=O)O)c4cc(O)cc(O)c4-c4cc3ccc4O)[C@H](O[C@H]3C[C@](C)(N)[C@@H](O)[C@H](C)O3)c3ccc(c(Cl)c3)Oc3cc2cc(c3O[C@@H]2O[C@H](CO)[C@@H](O)[C@H](O)[C@H]2O[C@H]2C[C@](C)(NCc3ccc(-c4ccc(Cl)cc4)cc3)[C@@H](O)[C@H](C)O2)Oc2ccc(cc2Cl)[C@H]1O [Oritavancin] | 0.0325 | -0.0405 | -0.0766 | 0.0492 | 
9 | CN(C)CCCN1c2ccccc2Sc2ccc(Cl)cc21 [Chlorpromazine] + CN[C@H](CC(C)C)C(=O)N[C@H]1C(=O)N[C@@H](CC(N)=O)C(=O)N[C@H]2C(=O)N[C@H]3C(=O)N[C@H](C(=O)N[C@H](C(=O)O)c4cc(O)cc(O)c4-c4cc3ccc4O)[C@H](O[C@H]3C[C@](C)(N)[C@@H](O)[C@H](C)O3)c3ccc(c(Cl)c3)Oc3cc2cc(c3O[C@@H]2O[C@H](CO)[C@@H](O)[C@H](O)[C@H]2O[C@H]2C[C@](C)(NCc3ccc(-c4ccc(Cl)cc4)cc3)[C@@H](O)[C@H](C)O2)Oc2ccc(cc2Cl)[C@H]1O [Oritavancin] |  | -0.202 |  |  | 
10 | CN(C)CCCN1c2ccccc2Sc2ccc(Cl)cc21 [Chlorpromazine] + C[C@H]1c2cccc(O)c2C(=O)C2=C(O)[C@]3(O)C(=O)C(C(N)=O)=C(O)[C@@H](N(C)C)[C@@H]3[C@@H](O)[C@@H]21 [Doxycycline] |  | -0.263 |  |  | 
11 | O=C(O)[C@H]1/C(=C/CO)O[C@@H]2CC(=O)N21 [Clavulanic] + C/C(=C\C(=O)OCCCCCCCCC(=O)O)C[C@@H]1OC[C@H](C[C@@H]2O[C@H]2[C@@H](C)[C@H](C)O)[C@@H](O)[C@H]1O [Pseudomonic acid] | -0.0513 |  |  | -0.0849 | 
12 | O=C(O)[C@H]1/C(=C/CO)O[C@@H]2CC(=O)N21 [Clavulanic] + CN[C@@H]1[C@H](O[C@H]2[C@H](O[C@H]3[C@H](O)[C@@H](O)[C@H](N=C(N)N)[C@@H](O)[C@@H]3N=C(N)N)O[C@@H](C)[C@]2(O)C=O)O[C@@H](CO)[C@H](O)[C@H]1O [Streptomycin] | 0.0954 |  | 0.218 | 0.0425 | 
13 | CNC(C)C1CCC(N)C(OC2C(N)CC(N)C(OC3OCC(C)(O)C(NC)C3O)C2O)O1 (stereo not drawn) [Gentamicin] + CC(C)Cc1ccc(C(C)C(=O)O)cc1 [Ibuprofen] |  |  |  |  | -0.442
14 | CNC(C)C1CCC(N)C(OC2C(N)CC(N)C(OC3OCC(C)(O)C(NC)C3O)C2O)O1 (stereo not drawn) [Gentamicin] + CCCSc1nc(N[C@@H]2C[C@H]2c2ccc(F)c(F)c2)c2nnn([C@@H]3C[C@H](OCCO)[C@@H](O)[C@H]3O)c2n1 [Ticagrelor] |  |  |  |  | -0.576
15 | CNC(C)C1CCC(N)C(OC2C(N)CC(N)C(OC3OCC(C)(O)C(NC)C3O)C2O)O1 (stereo not drawn) [Gentamicin] + CCCc1nc2c(C)cc(-c3nc4ccccc4n3C)cc2n1Cc1ccc(-c2ccccc2C(=O)O)cc1 [Telmisartan] |  |  |  |  | 0.241
16 | CNC(C)C1CCC(N)C(OC2C(N)CC(N)C(OC3OCC(C)(O)C(NC)C3O)C2O)O1 (stereo not drawn) [Gentamicin] + CC[C@H](c1ccc(O)cc1)[C@@H](CC)c1ccc(O)cc1 [Hexestrol] |  |  |  |  | -0.536
17 | CNC(C)C1CCC(N)C(OC2C(N)CC(N)C(OC3OCC(C)(O)C(NC)C3O)C2O)O1 (stereo not drawn) [Gentamicin] + O=C(O)Cc1cc(I)c(Oc2ccc(O)c(I)c2)c(I)c1 [Tiratricol] |  |  |  |  | 0.264
18 | c1ccc2c(CC3=NCCN3)cccc2c1 [Naphazoline] + COc1cc(Cc2cnc(N)nc2N)cc(OC)c1OC [Trimethoprim] |  | 0.236 |  |  | 
19 | CN1CCC[C@H]1c1cccnc1 [Nicotine] + CC[C@H]1OC(=O)[C@H](C)C(=O)[C@H](C)[C@@H](O[C@@H]2O[C@H](C)C[C@H](N(C)C)[C@H]2O)[C@](C)(OC)C[C@@H](C)C(=O)[C@H](C)[C@H]2N(CCCCn3cnc(-c4cccnc4)c3)C(=O)O[C@]12C [Telithromycin] |  | -0.342 |  |  | 
20 | Cc1onc(-c2ccccc2)c1C(=O)N[C@@H]1C(=O)N2[C@@H]1SC(C)(C)[C@@H]2C(=O)O [Oxacillin] + CCCSc1nc(N[C@@H]2C[C@H]2c2ccc(F)c(F)c2)c2nnn([C@@H]3C[C@H](OCCO)[C@@H](O)[C@H]3O)c2n1 [Ticagrelor] |  | 0.171 |  |  | 
21 | Cc1onc(-c2ccccc2)c1C(=O)N[C@@H]1C(=O)N2[C@@H]1SC(C)(C)[C@@H]2C(=O)O [Oxacillin] + Cc1c(Cl)cccc1Nc1ccccc1C(=O)O [Tolfenamic] |  | 0.138 |  |  | 
22 | CN(N=O)C(=O)N[C@@H](C=O)[C@@H](O)[C@H](O)[C@H](O)CO [Streptozotocin] + CCCSc1nc(N[C@@H]2C[C@H]2c2ccc(F)c(F)c2)c2nnn([C@@H]3C[C@H](OCCO)[C@@H](O)[C@H]3O)c2n1 [Ticagrelor] |  | 0.221 |  |  | 
23 | Cc1cc(NS(=O)(=O)c2ccc(N)cc2)no1 [Sulfamethoxazol] + CCCSc1nc(N[C@@H]2C[C@H]2c2ccc(F)c(F)c2)c2nnn([C@@H]3C[C@H](OCCO)[C@@H](O)[C@H]3O)c2n1 [Ticagrelor] |  | 0.254 |  |  | 
24 | CC[C@H]1OC(=O)[C@H](C)C(=O)[C@H](C)[C@@H](O[C@@H]2O[C@H](C)C[C@H](N(C)C)[C@H]2O)[C@](C)(OC)C[C@@H](C)C(=O)[C@H](C)[C@H]2N(CCCCn3cnc(-c4cccnc4)c3)C(=O)O[C@]12C [Telithromycin] + Cc1ccc(C(C)C)c(O)c1 [Thymol] |  | -0.222 |  |  | 
25 | Cc1c(Cl)cccc1Nc1ccccc1C(=O)O [Tolfenamic] + CN[C@H](CC(C)C)C(=O)N[C@H]1C(=O)N[C@@H](CC(N)=O)C(=O)N[C@H]2C(=O)N[C@H]3C(=O)N[C@H](C(=O)N[C@H](C(=O)O)c4cc(O)cc(O)c4-c4cc3ccc4O)[C@H](O)c3ccc(c(Cl)c3)Oc3cc2cc(c3O[C@@H]2O[C@H](CO)[C@@H](O)[C@H](O)[C@H]2O[C@H]2C[C@](C)(N)[C@H](O)[C@H](C)O2)Oc2ccc(cc2Cl)[C@H]1O [Vancomycin] |  | 0.124 |  |  | 
26 | Cc1c(Cl)cccc1Nc1ccccc1C(=O)O [Tolfenamic] + COc1cc(Cc2cnc(N)nc2N)cc(OC)c1OC [Trimethoprim] |  | -0.185 |  |  | 

From the supplement of paper PMC10627819
